# Laboratory results reported in PubChem BioAssay (NCI).
#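 Interpolation was linear, between the two tested concentrations surrounding the appropriate level; five concentrations were tested over 48 hours in 96-well plates. TGI denotes the concentration required for complete inhibition of growth.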
# Key:
# Assay in all cases: NCI anticancer screen, dose series, 48 h
# KM12 colon = system: KM12 colon
# RPMI-8226 leukemia = system: RPMI-8226 leukemia
# SW-620 colon = system: SW-620 colon
# M14 melanoma = system: M14 melanoma
# SK-MEL-5 melanoma = system: SK-MEL-5 melanoma
# HT29 colon = system: HT29 colon
# MDA-MB-231 breast = system: MDA-MB-231 breast
# HCC-2998 colon = system: HCC-2998 colon
# MOLT-4 leukemia = system: MOLT-4 leukemia
# K-562 leukemia = system: K-562 leukemia
# NCI/ADR-RES ovarian = system: NCI/ADR-RES ovarian
# NCI-H23 lung = system: NCI-H23 lung
# CAKI-1 renal = system: CAKI-1 renal
# OVCAR-4 ovarian = system: OVCAR-4 ovarian
# DU-145 prostate = system: DU-145 prostate
# SK-OV-3 ovarian = system: SK-OV-3 ovarian
# PC-3 prostate = system: PC-3 prostate
# SNB-19 CNS = system: SNB-19 CNS
# TK-10 renal = system: TK-10 renal
# HOP-62 NSCLC = system: HOP-62 NSCLC
# UO-31 renal = system: UO-31 renal
# UACC-62 melanoma = system: UACC-62 melanoma
# A549 NSCLC = system: A549 NSCLC
# SF-539 CNS = system: SF-539 CNS
# NCI-H460 lung = system: NCI-H460 lung
# HL-60(TB) leukemia = system: HL-60(TB) leukemia
# MDA-MB-435 = system: MDA-MB-435
# T-47D breast = system: T-47D breast
# MALME-3M melanoma = system: MALME-3M melanoma
# EKVX NSCLC = system: EKVX NSCLC
# LOX IMVI melanoma = system: LOX IMVI melanoma
# RXF 393 renal = system: RXF 393 renal
# OVCAR-8 ovarian = system: OVCAR-8 ovarian
# 786-0 renal = system: 786-0 renal
# COLO 205 colon = system: COLO 205 colon
# MCF7 breast = system: MCF7 breast
# NCI-H226 lung = system: NCI-H226 lung
# CCRF-CEM leukemia = system: CCRF-CEM leukemia
# OVCAR-5 ovarian = system: OVCAR-5 ovarian
# SF-295 CNS = system: SF-295 CNS
# SN12C renal = system: SN12C renal
# HCT-15 colon = system: HCT-15 colon
# U251 CNS = system: U251 CNS
# SF-268 CNS = system: SF-268 CNS
# SR leukemia = system: SR leukemia
# NCI-H522 lung = system: NCI-H522 lung
# IGROV1 ovarian = system: IGROV1 ovarian
# ACHN renal = system: ACHN renal
# SK-MEL-2 melanoma = system: SK-MEL-2 melanoma
# UACC-257 melanoma = system: UACC-257 melanoma
# MDA-N = system: MDA-N
# OVCAR-3 ovarian = system: OVCAR-3 ovarian
# HS 578T breast = system: HS 578T breast
# SNB-75 CNS = system: SNB-75 CNS
# HCT-116 colon = system: HCT-116 colon
# SK-MEL-28 melanoma = system: SK-MEL-28 melanoma
# HOP-92 NSCLC = system: HOP-92 NSCLC
# A498 renal = system: A498 renal
smiles,measurement,setting,value
C=C1OC(=O)[C@]2([C@@H](/C=C/C)C=CC(=O)[C@H]2O)[C@@H]1O,TGI,KM12 colon,> 100 µM
same,TGI,RPMI-8226 leukemia,> 100 µM
same,TGI,SW-620 colon,> 100 µM
same,TGI,M14 melanoma,> 100 µM
same,TGI,SK-MEL-5 melanoma,> 100 µM
same,TGI,HT29 colon,> 100 µM
same,TGI,MDA-MB-231 breast,> 100 µM
same,TGI,HCC-2998 colon,> 100 µM
same,TGI,MOLT-4 leukemia,> 100 µM
same,TGI,K-562 leukemia,> 100 µM
same,TGI,NCI/ADR-RES ovarian,> 100 µM
same,TGI,NCI-H23 lung,> 100 µM
same,TGI,CAKI-1 renal,> 100 µM
same,TGI,OVCAR-4 ovarian,> 100 µM
same,TGI,DU-145 prostate,> 100 µM
same,TGI,SK-OV-3 ovarian,> 100 µM
same,TGI,PC-3 prostate,> 100 µM
same,TGI,SNB-19 CNS,> 100 µM
same,TGI,TK-10 renal,> 100 µM
same,TGI,HOP-62 NSCLC,> 100 µM
same,TGI,UO-31 renal,> 100 µM
same,TGI,UACC-62 melanoma,> 100 µM
same,TGI,A549 NSCLC,> 100 µM
same,TGI,SF-539 CNS,> 100 µM
same,TGI,NCI-H460 lung,> 100 µM
same,TGI,HL-60(TB) leukemia,> 100 µM
same,TGI,MDA-MB-435,> 100 µM
same,TGI,T-47D breast,> 100 µM
same,TGI,MALME-3M melanoma,> 100 µM
same,TGI,EKVX NSCLC,> 100 µM
same,TGI,LOX IMVI melanoma,> 100 µM
same,TGI,RXF 393 renal,> 100 µM
same,TGI,OVCAR-8 ovarian,> 100 µM
same,TGI,786-0 renal,> 100 µM
same,TGI,COLO 205 colon,> 100 µM
same,TGI,MCF7 breast,> 100 µM
same,TGI,NCI-H226 lung,> 100 µM
same,TGI,CCRF-CEM leukemia,> 100 µM
same,TGI,OVCAR-5 ovarian,> 100 µM
same,TGI,SF-295 CNS,> 100 µM
same,TGI,SN12C renal,> 100 µM
same,TGI,HCT-15 colon,> 100 µM
same,TGI,U251 CNS,> 100 µM
same,TGI,SF-268 CNS,> 100 µM
same,TGI,SR leukemia,> 100 µM
same,TGI,NCI-H522 lung,> 100 µM
same,TGI,IGROV1 ovarian,> 100 µM
same,TGI,ACHN renal,> 100 µM
same,TGI,SK-MEL-2 melanoma,> 100 µM
same,TGI,UACC-257 melanoma,> 100 µM
same,TGI,MDA-N,> 100 µM
same,TGI,OVCAR-3 ovarian,> 100 µM
same,TGI,HS 578T breast,> 100 µM
same,TGI,SNB-75 CNS,> 100 µM
same,TGI,HCT-116 colon,> 100 µM
same,TGI,SK-MEL-28 melanoma,> 100 µM
COc1cc(C(=O)NC(CCN)(c2ccccc2)c2ccccc2)cc(OC)c1OC,TGI,KM12 colon,> 31.6 µM
same,TGI,SW-620 colon,> 31.6 µM
same,TGI,M14 melanoma,19.1 µM
same,TGI,SK-MEL-5 melanoma,18 µM
same,TGI,HT29 colon,28.3 µM
same,TGI,MDA-MB-231 breast,> 31.5 µM
same,TGI,HCC-2998 colon,19.8 µM
same,TGI,MOLT-4 leukemia,21.5 µM
same,TGI,K-562 leukemia,23.1 µM
same,TGI,NCI/ADR-RES ovarian,> 100 µM
same,TGI,NCI-H23 lung,> 31.6 µM
same,TGI,CAKI-1 renal,87.6 µM
same,TGI,OVCAR-4 ovarian,> 31.6 µM
same,TGI,DU-145 prostate,> 31.6 µM
same,TGI,SK-OV-3 ovarian,> 31.6 µM
same,TGI,HOP-92 NSCLC,25.5 µM
same,TGI,PC-3 prostate,> 100 µM
same,TGI,SNB-19 CNS,> 100 µM
same,TGI,TK-10 renal,> 31.6 µM
same,TGI,HOP-62 NSCLC,> 31.6 µM
same,TGI,UO-31 renal,> 64.4 µM
same,TGI,UACC-62 melanoma,> 31.6 µM
same,TGI,A549 NSCLC,> 31.6 µM
same,TGI,SF-539 CNS,> 100 µM
same,TGI,NCI-H460 lung,> 31.6 µM
same,TGI,HL-60(TB) leukemia,18.5 µM
same,TGI,MDA-MB-435,> 31.6 µM
same,TGI,T-47D breast,> 31.6 µM
same,TGI,MALME-3M melanoma,18.4 µM
same,TGI,EKVX NSCLC,> 31.6 µM
same,TGI,LOX IMVI melanoma,> 31.6 µM
same,TGI,RXF 393 renal,27.6 µM
same,TGI,OVCAR-8 ovarian,> 31.6 µM
same,TGI,786-0 renal,> 31.6 µM
same,TGI,COLO 205 colon,19 µM
same,TGI,MCF7 breast,> 31.6 µM
same,TGI,NCI-H226 lung,98.9 µM
same,TGI,OVCAR-5 ovarian,> 100 µM
same,TGI,SF-295 CNS,> 31.6 µM
same,TGI,SN12C renal,> 31.6 µM
same,TGI,HCT-15 colon,> 31.6 µM
same,TGI,U251 CNS,> 100 µM
same,TGI,SF-268 CNS,> 31.6 µM
same,TGI,SR leukemia,24 µM
same,TGI,NCI-H522 lung,> 100 µM
same,TGI,IGROV1 ovarian,> 31.6 µM
same,TGI,ACHN renal,> 31.6 µM
same,TGI,SK-MEL-2 melanoma,> 100 µM
same,TGI,UACC-257 melanoma,22.3 µM
same,TGI,MDA-N,> 100 µM
same,TGI,OVCAR-3 ovarian,> 100 µM
same,TGI,HS 578T breast,> 92.6 µM
same,TGI,SNB-75 CNS,30.4 µM
same,TGI,A498 renal,17.5 µM
same,TGI,HCT-116 colon,> 95.3 µM
same,TGI,SK-MEL-28 melanoma,21.4 µM
CN1C(=O)CC2CCCN2C1=O (configuration not stated),TGI,KM12 colon,> 100 µM
same,TGI,RPMI-8226 leukemia,> 100 µM
same,TGI,SW-620 colon,> 100 µM
same,TGI,M14 melanoma,> 100 µM
same,TGI,SK-MEL-5 melanoma,> 100 µM
same,TGI,HT29 colon,> 100 µM
same,TGI,MDA-MB-231 breast,> 100 µM
same,TGI,HCC-2998 colon,> 100 µM
same,TGI,MOLT-4 leukemia,> 100 µM
same,TGI,K-562 leukemia,> 100 µM
same,TGI,NCI/ADR-RES ovarian,> 100 µM
same,TGI,NCI-H23 lung,> 100 µM
same,TGI,CAKI-1 renal,> 100 µM
same,TGI,OVCAR-4 ovarian,> 100 µM
same,TGI,DU-145 prostate,> 100 µM
same,TGI,SK-OV-3 ovarian,> 100 µM
same,TGI,HOP-92 NSCLC,> 100 µM
same,TGI,PC-3 prostate,> 100 µM
same,TGI,SNB-19 CNS,> 100 µM
same,TGI,TK-10 renal,> 100 µM
same,TGI,HOP-62 NSCLC,> 100 µM
same,TGI,UO-31 renal,> 100 µM
same,TGI,UACC-62 melanoma,> 100 µM
same,TGI,A549 NSCLC,> 100 µM
same,TGI,SF-539 CNS,> 100 µM
same,TGI,NCI-H460 lung,> 100 µM
same,TGI,MDA-MB-435,> 100 µM
same,TGI,T-47D breast,> 100 µM
same,TGI,MALME-3M melanoma,> 100 µM
same,TGI,EKVX NSCLC,> 100 µM
same,TGI,LOX IMVI melanoma,> 100 µM
same,TGI,RXF 393 renal,> 100 µM
same,TGI,OVCAR-8 ovarian,> 100 µM
same,TGI,786-0 renal,> 100 µM
same,TGI,COLO 205 colon,> 100 µM
same,TGI,MCF7 breast,> 100 µM
same,TGI,NCI-H226 lung,> 100 µM
same,TGI,CCRF-CEM leukemia,> 100 µM
same,TGI,OVCAR-5 ovarian,> 100 µM
same,TGI,SF-295 CNS,> 100 µM
same,TGI,HCT-15 colon,> 100 µM
same,TGI,U251 CNS,> 100 µM
same,TGI,SF-268 CNS,> 100 µM
same,TGI,SR leukemia,> 100 µM
same,TGI,NCI-H522 lung,> 100 µM
same,TGI,IGROV1 ovarian,> 100 µM
same,TGI,ACHN renal,> 100 µM
same,TGI,SK-MEL-2 melanoma,> 100 µM
same,TGI,UACC-257 melanoma,> 100 µM
same,TGI,MDA-N,> 100 µM
same,TGI,OVCAR-3 ovarian,> 100 µM
same,TGI,HS 578T breast,> 100 µM
same,TGI,SNB-75 CNS,> 100 µM
same,TGI,A498 renal,> 100 µM
same,TGI,SK-MEL-28 melanoma,> 100 µM
